In US12459899B2, “Isoquinolinone derivatives, method for preparing the same, and pharmaceutical composition for preventing or treating poly(ADP-ribose) polymerase-1-related diseases, comprising the same as active ingredient” (DIGMBIO. INC., priority 2019, dated 2025):

Target: PARP-1 (poly[ADP-ribose] polymerase 1) enzyme (Homo sapiens (Human), UniProt P09874)
Assay: PARP-1 (poly[ADP-ribose] polymerase 1) enzyme inhibitory ability, Trevigen assay kit
Format: biochemical
Conditions: for inhibition at 0.001 µM: 1 nM compound, read-out: PAR P-1 Inhibitory ability at 1 nM; for IC50: PARP-1 enzyme activity
Outline: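 Human PARP-1 activity was measured with a Trevigen assay kit in histone-coated 96-well plates rehydrated with 50 μL of 1×PARP buffer for 30 minutes. Enzyme (0.5 unit/well) and compound were preincubated 10 minutes at room temperature, then 25 μL of 1×PARP cocktail with biotinylated NAD and activated DNA was added for 1 hour.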

Chain of PARP-1 (poly[ADP-ribose] polymerase 1) enzyme (P09874 whole entry): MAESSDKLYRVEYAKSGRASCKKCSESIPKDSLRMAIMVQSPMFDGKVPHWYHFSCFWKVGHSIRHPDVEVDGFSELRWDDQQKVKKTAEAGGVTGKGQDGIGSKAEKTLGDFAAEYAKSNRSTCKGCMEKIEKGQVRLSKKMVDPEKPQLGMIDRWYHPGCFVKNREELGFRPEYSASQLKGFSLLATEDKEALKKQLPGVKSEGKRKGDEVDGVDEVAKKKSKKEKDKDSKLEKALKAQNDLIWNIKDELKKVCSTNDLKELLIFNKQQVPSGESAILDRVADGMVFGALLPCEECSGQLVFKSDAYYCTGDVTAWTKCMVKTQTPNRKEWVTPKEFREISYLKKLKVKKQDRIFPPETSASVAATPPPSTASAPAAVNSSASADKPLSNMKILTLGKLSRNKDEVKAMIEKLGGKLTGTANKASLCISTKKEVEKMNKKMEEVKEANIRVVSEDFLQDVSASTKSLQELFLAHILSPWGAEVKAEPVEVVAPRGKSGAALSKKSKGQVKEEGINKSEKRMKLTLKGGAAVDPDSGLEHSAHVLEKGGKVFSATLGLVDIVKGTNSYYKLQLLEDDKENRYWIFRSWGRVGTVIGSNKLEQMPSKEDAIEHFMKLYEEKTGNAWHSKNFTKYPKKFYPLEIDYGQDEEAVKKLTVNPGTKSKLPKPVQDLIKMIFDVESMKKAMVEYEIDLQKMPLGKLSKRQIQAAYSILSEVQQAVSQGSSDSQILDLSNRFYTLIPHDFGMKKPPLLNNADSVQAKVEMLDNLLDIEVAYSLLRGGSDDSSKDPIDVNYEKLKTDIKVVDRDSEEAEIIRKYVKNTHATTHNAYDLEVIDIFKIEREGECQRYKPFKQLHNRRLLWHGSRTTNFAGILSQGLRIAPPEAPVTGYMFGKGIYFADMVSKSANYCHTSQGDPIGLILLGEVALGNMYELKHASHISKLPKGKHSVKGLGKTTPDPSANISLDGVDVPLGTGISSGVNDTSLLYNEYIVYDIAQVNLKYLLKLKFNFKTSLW

| inhibition at 0.001 µM [%] | IC50 [nM] | Compound |
| --- | --- | --- |
| < 50 |  | N#Cc1ccc(N2CCN(C(=O)CCc3cc4ccc(F)cc4c(=O)[nH]3)CC2)c(F)c1 [Example 100, 3-fluoro-4-(4-(3-(7-fluoro-1-oxo-1,2-dihydroisoquinolin-3-yl)propanoyl)piperazin-1-yl)benzonitrile] |
| < 50 |  | N#Cc1ccc(N2CCN(C(=O)CCc3cc4ccc(F)cc4c(=O)[nH]3)CC2)cc1F [Example 101, 2-fluoro-4-(4-(3-(7-fluoro-1-oxo-1,2-dihydroisoquinolin-3-yl)propanoyl)piperazin-1-yl)benzonitrile] |
| < 50 |  | O=C(CCc1cc2ccc(F)cc2c(=O)[nH]1)N1CC=C(c2ccc(F)nc2)CC1 [Example 102] |
| < 50 | 0.91 | O=C(CCc1cc2ccc(F)cc2c(=O)[nH]1)N1CC=C(c2ccc(F)cn2)CC1 [Example 103, 7-fluoro-3-(3-(5-fluoro-3′,6′-dihydro-[2,4′-bipyridine]-1′(2′H)-yl)-3-oxopropyl)isoquinolin-1(2H)-one] |
| < 50 |  | O=C(CCc1cc2ccc(F)cc2c(=O)[nH]1)N1CC=C(c2ccc(F)cc2)CC1 [Example 104, 7-fluoro-3-(3-(4-(4-fluorophenyl)-3,6-dihydropyridin-1(2H)-yl)-3-oxopropyl)isoquinolin-1(2H)-one] |
| < 50 |  | O=C(CCc1cc2ccc(F)cc2c(=O)[nH]1)N1CCN(c2ccc(Cl)cc2)CC1 [Example 105, 3-(3-(4-(4-chlorophenyl)piperazin-1-yl)-3-oxopropyl)-7-fluoroisoquinolin-1(2H)-one] |
| < 50 |  | O=C(CCc1cc2ccc(F)cc2c(=O)[nH]1)N1CCN(c2ccc(F)cc2F)CC1 [Example 106, 3-(3-(4-(2,4-difluorophenyl)piperazin-1-yl)-3-oxopropyl)-7-fluoroisoquinolin-1(2H)-one] |
| < 50 |  | N#Cc1ccc(F)c(N2CCN(C(=O)CCc3cc4ccc(F)cc4c(=O)[nH]3)CC2)c1 [Example 107, 4-fluoro-3-(4-(3-(7-fluoro-1-oxo-1,2-dihydroisoquinolin-3-yl)propanoyl)piperazin-1-yl)benzonitrile] |
| < 50 |  | N#Cc1ccc(F)cc1N1CCN(C(=O)CCc2cc3ccc(F)cc3c(=O)[nH]2)CC1 [Example 108, 4-fluoro-2-(4-(3-(7-fluoro-1-oxo-1,2-dihydroisoquinolin-3-yl)propanoyl)piperazin-1-yl)benzonitrile] |
| < 50 |  | N#Cc1cc(N2CCN(C(=O)CCc3cc4ccc(F)cc4c(=O)[nH]3)CC2)ccc1F [Example 109, 2-fluoro-5-(4-(3-(7-fluoro-1-oxo-1,2-dihydroisoquinolin-3-yl)propanoyl)piperazin-1-yl)benzonitrile] |
| < 50 |  | N#Cc1cc(F)ccc1N1CCN(C(=O)CCc2cc3ccc(F)cc3c(=O)[nH]2)CC1 [Example 110, 5-fluoro-2-(4-(3-(7-fluoro-1-oxo-1,2-dihydroisoquinolin-3-yl)propanoyl)piperazin-1-yl)benzonitrile] |
| < 50 |  | N#Cc1ccc(F)c(C2=CCN(C(=O)CCc3cc4ccc(F)cc4c(=O)[nH]3)CC2)c1 [Example 111, 4-fluoro-3-(1-(3-(7-fluoro-1-oxo-1,2-dihydroisoquinolin-3-yl)propanoyl)-1,2,3,6-tetrahydropyridin-4-yl)benzonitrile] |
| < 50 |  | N#Cc1cc(F)ccc1C1=CCN(C(=O)CCc2cc3ccc(F)cc3c(=O)[nH]2)CC1 [Example 112, 5-fluoro-2-(1-(3-(7-fluoro-1-oxo-1,2-dihydroisoquinolin-3-yl)propanoyl)-1,2,3,6-tetrahydropyridin-4-yl)benzonitrile] |
| < 50 |  | O=C(CCc1cc2ccc(F)cc2c(=O)[nH]1)N1CC=C(c2ccc(F)cc2F)CC1 [Example 113, 3-(3-(4-(2,4-difluorophenyl)-3,6-dihydropyridin-1(2H)-yl)-3-oxopropyl)-7-fluoroisoquinolin-1(2H)-one] |
| < 50 |  | N#Cc1cc(F)cc(C2=CCN(C(=O)CCc3cc4ccc(F)cc4c(=O)[nH]3)CC2)c1 [Example 114, 3-fluoro-5-(1-(3-(7-fluoro-1-oxo-1,2-dihydroisoquinolin-3-yl)propanoyl)-1,2,3,6-tetrahydropyridin-4-yl)benzonitrile] |
| < 50 |  | O=C(CCc1cc2ccc(F)cc2c(=O)[nH]1)N1CC=C(c2cccc(F)c2)CC1 [Example 115, 7-fluoro-3-(3-(4-(3-fluorophenyl)-3,6-dihydropyridin-1(2H)-yl)-3-oxopropyl)isoquinolin-1(2H)-one] |
| < 50 |  | O=C(CCc1cc2ccc(F)cc2c(=O)[nH]1)N1CC[C@H](c2ccc(F)cc2)C1 [Example 116, (R)-7-fluoro-3-(3-(3-(4-fluorophenyl)pyrrolidin-1-yl)-3-oxopropyl)isoquinolin-1(2H)-one] |
| < 50 |  | O=C(CCc1cc2ccc(F)cc2c(=O)[nH]1)N1CC[C@@H](c2ccc(F)cc2)C1 [Example 117, (S)-7-fluoro-3-(3-(3-(4-fluorophenyl)pyrrolidin-1-yl)-3-oxopropyl)isoquinolin-1(2H)-one] |

| inhibition at 0.001 µM [%] | IC50 [nM] | Compound |
| --- | --- | --- |
| < 50 |  | O=C(CCc1cc2ccc(F)cc2c(=O)[nH]1)N1CCN(c2ccc(C(F)(F)F)cc2)CC1 [Example 118, 7-fluoro-3-(3-oxo-3-(4-(4-(trifluoromethyl)phenyl)piperazin-1-yl)propyl)isoquinolin-1(2H)-one] |
| < 50 |  | N#Cc1cc(F)cc(N2CCN(C(=O)CCc3cc4ccc(F)cc4c(=O)[nH]3)CC2)c1 [Example 119, 3-fluoro-5-(4-(3-(7-fluoro-1-oxo-1,2-dihydroisoquinolin-3-yl)propanoyl)piperazin-1-yl)benzonitrile] |
| < 50 |  | O=C(CCc1cc2ccc(F)cc2c(=O)[nH]1)N1CCN(c2cccc(F)c2)CC1 [Example 120, 7-fluoro-3-(3-(4-(3-fluorophenyl)piperazin-1-yl)-3-oxopropyl)isoquinolin-1(2H)-one] |
| < 50 |  | O=C(CCc1cc2ccc(F)cc2c(=O)[nH]1)N1CC=C(c2ccnc(F)c2)CC1 [Example 121, 7-fluoro-3-(3-(2′-fluoro-3,6-dihydro-[4,4′-bipyridine]-1(2H)-yl)-3-oxopropyl)isoquinolin-1(2H)-one] |
| < 50 |  | Cc1ccc(F)c2c(=O)[nH]c(CCC(=O)N3CCN(c4ccc(C#N)cc4)CC3)cc12 [Example 122, 4-(4-(3-(8-fluoro-5-methyl-1-oxo-1,2-dihydroisoquinolin-3-yl)propanoyl)piperazin-1-yl)benzonitrile] |
| < 50 |  | Cc1ccc(F)c2c(=O)[nH]c(CCC(=O)N3CCN(c4ccc(C#N)cn4)CC3)cc12 [Example 123, 6-(4-(3-(8-fluoro-5-methyl-1-oxo-1,2-dihydroisoquinolin-3-yl)propanoyl)piperazin-1-yl)nicotinonitrile] |
| < 50 |  | Cc1ccc(F)c2c(=O)[nH]c(CCC(=O)N3CCN(c4ccc(C#N)nc4)CC3)cc12 [Example 124, 5-(4-(3-(8-fluoro-5-methyl-1-oxo-1,2-dihydroisoquinolin-3-yl)propanoyl)piperazin-1-yl)picolinonitrile] |
| < 50 |  | Cc1ccc(F)c2c(=O)[nH]c(CCC(=O)N3CC=C(c4ccc(F)cc4)CC3)cc12 [Example 125, 8-fluoro-3-(3-(4-(4-fluorophenyl)-3,6-dihydropyridin-1(2H)-yl)-3-oxopropyl)-5-methylisoquinolin-1(2H)-one] |
| < 50 |  | Cc1ccc(F)c2c(=O)[nH]c(CCC(=O)N3CCN(c4ccc(C#N)c(F)c4)CC3)cc12 [Example 126, 2-fluoro-4-(4-(3-(8-fluoro-5-methyl-1-oxo-1,2-dihydroisoquinolin-3-yl)propanoyl)piperazin-1-yl)benzonitrile] |
| < 50 |  | Cc1ccc(F)c2c(=O)[nH]c(CCC(=O)N3CCN(c4ccccc4C#N)CC3)cc12 [Example 127, 2-(4-(3-(8-fluoro-5-methyl-1-oxo-1,2-dihydroisoquinolin-3-yl)propanoyl)piperazin-1-yl)benzonitrile] |
| < 50 | 1.38 | Cc1ccc(F)c2c(=O)[nH]c(CCC(=O)N3CCN(c4ccc(C#N)cc4F)CC3)cc12 [Example 128, 3-fluoro-4-(4-(3-(8-fluoro-5-methyl-1-oxo-1,2-dihydroisoquinolin-3-yl)propanoyl)piperazin-1-yl)benzonitrile] |
| < 50 |  | Cc1ccc(F)c2c(=O)[nH]c(CCC(=O)N3CC=C(c4ccc(F)nc4)CC3)cc12 [Example 129] |
| < 50 |  | Cc1ccc(F)c2c(=O)[nH]c(CCC(=O)N3CC=C(c4ccc(F)cn4)CC3)cc12 [Example 130, 8-fluoro-3-(3-(5-fluoro-3′,6′-dihydro-[2,4′-bipyridine]-1′(2′H)-yl)-3-oxopropyl)-5-methylisoquinolin-1(2H)-one] |
| < 50 |  | Cc1ccc(F)c2c(=O)[nH]c(CCC(=O)N3CCN(c4ccc(Cl)cc4)CC3)cc12 [Example 131, 3-(3-(4-(4-chlorophenyl)piperazin-1-yl)-3-oxopropyl)-8-fluoro-5-methylisoquinolin-1(2H)-one] |
| < 50 |  | Cc1ccc(F)c2c(=O)[nH]c(CCC(=O)N3CCN(c4ccc(F)cc4F)CC3)cc12 [Example 132, 3-(3-(4-(2,4-difluorophenyl)piperazin-1-yl)-3-oxopropyl)-8-fluoro-5-methylisoquinolin-1(2H)-one] |
| < 50 |  | Cc1ccc(F)c2c(=O)[nH]c(CCC(=O)N3CCN(c4cc(C#N)ccc4F)CC3)cc12 [Example 133, 4-fluoro-3-(4-(3-(8-fluoro-5-methyl-1-oxo-1,2-dihydroisoquinolin-3-yl)propanoyl)piperazin-1-yl)benzonitrile] |
| < 50 |  | Cc1ccc(F)c2c(=O)[nH]c(CCC(=O)N3CCN(c4cc(F)ccc4C#N)CC3)cc12 [Example 134, 4-fluoro-2-(4-(3-(8-fluoro-5-methyl-1-oxo-1,2-dihydroisoquinolin-3-yl)propanoyl)piperazin-1-yl)benzonitrile] |
